Data published in patent US8415342B2, “Besifloxacin ophthalmic composition for the treatment or control of infection” (Bausch & Lomb Incorporated, priority 2008, dated 2013).
Converted amounts (≈) assume the structure as drawn. Where two headings read alike, the source gives them in different places.

How the values were obtained:
Type in all cases: cell-based
Legionella pneumophila = assay: microbe, parasite or virus in culture
Klebsiella oxytoca = assay: MIC, CLSI broth microdilution, clinical isolates; settings: Klebsiella oxytoca (N = 50)
Streptococcus pneumoniae = assay: MIC, CLSI broth microdilution, clinical isolates
[1] = system: Lancefield group C, F, G streptococci; assay: MIC, CLSI broth microdilution, clinical isolates; settings: G streptococci (N = 50)
Citrobacter koseri = assay: MIC, CLSI broth microdilution, clinical isolates; settings: Citrobacter koseri (N = 100)
[2] = system: Staphylococcus saprophyticus; assay: MIC, CLSI broth microdilution, clinical isolates; settings: Staphylococcus saprophyticus (N = 101)
S. pneumoniae = assay: MIC and MBC:MIC ratio, recent ocular isolates; settings: S. pneumoniae (N = 35), recent ocular isolates
[3] = system: Staphylococcus lugdunensis; assay: MIC, CLSI broth microdilution, clinical isolates; settings: Staphylococcus lugdunensis (N = 15)
Viridans streptococci = assay: MIC, CLSI broth microdilution, clinical isolates; settings: Viridans streptococci (N = 156)
S. epidermidis = assay: MIC of clinical trial isolates, Studies 373, 433, 434; settings: Staphylococcus epidermidis, read-out: MIC90
Haemophilus influenzae = assay: MIC, CLSI broth microdilution, clinical isolates; settings: for MIC50 / MIC90: Haemophilus influenzae
[4] = system: Staphylococcus haemolyticus; assay: MIC, CLSI broth microdilution, clinical isolates; settings: Staphylococcus haemolyticus (N = 101)
[5] = system: Staphylococcus epidermidis; assay: MIC, CLSI broth microdilution, clinical isolates; settings: for MIC50: Staphylococcus epidermidis
Streptococcus pyogenes = assay: MIC, CLSI broth microdilution, clinical isolates; settings: Streptococcus pyogenes (N = 101)
Morganella morganii = assay: MIC, CLSI broth microdilution, clinical isolates; settings: Morganella morganii (N = 51)
Staphylococcus hominis = assay: MIC, CLSI broth microdilution, clinical isolates; settings: Staphylococcus hominis (N = 50)
S. aureus = assay: MIC of clinical trial isolates, Studies 373, 433, 434; settings: Staphylococcus aureus
Moraxella catarrhalis = assay: MIC, CLSI broth microdilution, clinical isolates; settings: Moraxella catarrhalis (N = 101)
Staphylococcus warneri = assay: MIC, CLSI broth microdilution, clinical isolates; settings: Staphylococcus warneri (N = 50)
Streptococcus agalactiae = assay: MIC, CLSI broth microdilution, clinical isolates; settings: Streptococcus agalactiae (N = 100)
Staphylococcus aureus = assay: MIC, CLSI broth microdilution, clinical isolates; settings: for MIC50 / MIC90: Staphylococcus aureus
[6] = Streptococcus pneumoniae (PSSP, N = 31)
[7] = Haemophilus influenzae (all phenotypes, N = 40)
[8] = Haemophilus influenzae (bla negative, N = 24)
[9] = Haemophilus influenzae (bla positive, N = 16)
[10] = Staphylococcus epidermidis (CNS, N = 6)
[11] = Staphylococcus epidermidis (CS, N = 9)
[12] = Staphylococcus epidermidis (MSSE, N = 6)
[13] = Staphylococcus epidermidis (all phenotypes, N = 15)
[14] = Staphylococcus aureus (CNS, N = 16)
[15] = Staphylococcus aureus (CS, N = 14)
[16] = Staphylococcus aureus (all phenotypes, N = 30)
[17] = MRSA, Staphylococcus aureus (MRSA, N = 11)
[18] = MSSA, Staphylococcus aureus (MSSA, N = 19)

For `CC[C@H]1OC(=O)[C@H](C)[C@@H](O[C@H]2C[C@@](C)(OC)[C@@H](O)[C@H](C)O2)[C@H](C)[C@@H](O[C@@H]2O[C@H](C)C[C@H](N(C)C)[C@H]2O)[C@](C)(O)C[C@@H](C)CN(C)[C@H](C)[C@@H](O)[C@]1(C)O` [Azithromycin], the MIC50 (Legionella pneumophila; Legionella pneumophila) was 0.12 µg/mL (≈ 0.16 µM), the MIC90 (Legionella pneumophila; Legionella pneumophila) was 1 µg/mL (≈ 1.34 µM) and the “MIC Range” value (Legionella pneumophila; Legionella pneumophila (N = 50)) was 0.03 to 1 µg/mL. For the same compound, the MIC50 (Klebsiella oxytoca) was > 8 µg/mL, the MIC90 (Klebsiella oxytoca) was > 8 µg/mL and the “% S” value (Streptococcus pneumoniae; Streptococcus pneumoniae (PISP, N = 2)) was 0.0%. For the same compound, the “% S” value (Streptococcus pneumoniae; Streptococcus pneumoniae (PRSP, N = 2)) was 50.0%, the “% S” value (Streptococcus pneumoniae; [6]) was 67.7% and the MIC50 (Streptococcus pneumoniae; [6]) was 0.06 µg/mL (≈ 0.0801 µM). For the same compound, the MIC90 (Streptococcus pneumoniae; [6]) was >8 µg/mL, the “% S” value (Streptococcus pneumoniae; Streptococcus pneumoniae (all phenotypes, N = 35)) was 62.9% and the MIC50 (Streptococcus pneumoniae; Streptococcus pneumoniae (all phenotypes, N = 35), read-out: MIC50) was 0.06 µg/mL (≈ 0.0801 µM). The MIC90 (Streptococcus pneumoniae; Streptococcus pneumoniae (all phenotypes, N = 35), read-out: MIC90) was > 8 µg/mL, the “% S” value [1] was 74.0% and the MIC50 ([1]; read-out: MIC50) was 0.06 µg/mL (≈ 0.0801 µM). For the same compound, the MIC90 ([1]; read-out: MIC90) was > 8 µg/mL, the MIC50 (Citrobacter koseri) was 8 µg/mL (≈ 10.7 µM) and the MIC90 (Citrobacter koseri) was > 8 µg/mL. The “% S” value [2] was 54.5%, the MIC50 [2] was 1 µg/mL (≈ 1.34 µM) and the MIC90 [2] was > 8 µg/mL. For the same compound, the “% S (susceptible isolates, CLSI)” value (S. pneumoniae) was 62.9%, the MIC50 (S. pneumoniae; Streptococcus pneumoniae) was 0.06 µg/mL and the MIC90 (S. pneumoniae; Streptococcus pneumoniae) was > 8 µg/mL. The “% S” value [3] was 46.7%, the MIC50 [3] was > 8 µg/mL and the MIC90 [3] was > 8 µg/mL. The “% S” value (Viridans streptococci) was 53.2%, the MIC50 (Viridans streptococci; read-out: MIC50) was 0.06 µg/mL (≈ 0.0801 µM) and the MIC90 (Viridans streptococci; read-out: MIC90) was > 8 µg/mL. For the same compound, the MIC90 (S. epidermidis; MRSE, S. epidermidis MRSE-CR, N 24) was > 8 µg/mL, the MIC90 (S. epidermidis; MRSE, S. epidermidis MRSE-CS, N 27) was > 8 µg/mL and the MIC90 (S. epidermidis; S. epidermidis MSSE-CR, N 10) was > 8 µg/mL. For the same compound, the MIC90 (S. epidermidis; S. epidermidis MSSE-CS, N 50) was > 8 µg/mL, the “% S” value (Haemophilus influenzae; [7]) was 100.0% and the “MIC Range” value (Haemophilus influenzae; [7]) was “≦0.004-2 μg/mL”. The “% S” value (Haemophilus influenzae; [8]) was 100.0%, the “MIC Range” value (Haemophilus influenzae; [8]) was “≦0.004-2 μg/mL” and the “% S” value (Haemophilus influenzae; [9]) was 100.0%. For the same compound, the “MIC Range” value (Haemophilus influenzae; [9]) was 0.06 to 1 µg/mL, the MIC50 (Haemophilus influenzae; [7]) was 0.5 µg/mL (≈ 0.668 µM) and the MIC90 (Haemophilus influenzae; [7]) was 1 µg/mL (≈ 1.34 µM). It also gave an MIC50 (Haemophilus influenzae; [8]) of 0.5 µg/mL (≈ 0.668 µM), an MIC90 (Haemophilus influenzae; [8]) of 2 µg/mL (≈ 2.67 µM) and an MIC50 (Haemophilus influenzae; [9]) of 0.5 µg/mL (≈ 0.668 µM). The MIC90 (Haemophilus influenzae; [9]) was 1 µg/mL (≈ 1.34 µM), the “% S” value [4] was 26.7% and the MIC50 [4] was > 8 µg/mL. For the same compound, the MIC90 [4] was > 8 µg/mL, the “% S” value [5, 10] was 16.7% and the “% S” value [5, 11] was 33.3%. For the same compound, the “% S” value ([5]; Staphylococcus epidermidis (MRSE, N = 9)) was 0.0%, the “% S” value [5, 12] was 66.7% and the “% S” value [5, 13] was 26.7%. The MIC90 [5, 13] was > 8 µg/mL, the MIC50 ([5]; MRSE, Staphylococcus epidermidis (MRSE, N = 9)) was > 8 µg/mL and the MIC50 [5, 10] was > 8 µg/mL. The MIC50 [5, 11] was > 8 µg/mL, the MIC50 [5, 12] was 0.5 µg/mL (≈ 0.668 µM) and the MIC50 [5, 13] was > 8 µg/mL. The “% S” value (Streptococcus pyogenes) was 85.1%, the MIC50 (Streptococcus pyogenes; read-out: MIC50) was 0.06 µg/mL (≈ 0.0801 µM) and the MIC90 (Streptococcus pyogenes; read-out: MIC90) was 8 µg/mL (≈ 10.7 µM). For the same compound, the MIC50 (Morganella morganii) was > 8 µg/mL, the MIC90 (Morganella morganii) was > 8 µg/mL and the “% S” value (Staphylococcus hominis) was 16.0%. For the same compound, the MIC50 (Staphylococcus hominis) was > 8 µg/mL, the MIC90 (Staphylococcus hominis) was > 8 µg/mL and the MIC90 (S. aureus; MRSA, S. aureus MRSA-CR, N 17, read-out: MIC90) was > 8 µg/mL. The MIC90 (S. aureus; MRSA, S. aureus MRSA-CS, N 9, read-out: MIC90 (due to limited isolates, highest MIC value is given)) was > 8 µg/mL, the MIC90 (S. aureus; MSSA, S. aureus MSSA-CR, N 17, read-out: MIC90) was > 8 µg/mL and the MIC90 (S. aureus; MSSA, S. aureus MSSA-CS, N 144, read-out: MIC90) was > 8 µg/mL. The “% S” value (Moraxella catarrhalis) was 100.0%, the MIC50 (Moraxella catarrhalis) was 0.03 µg/mL (≈ 0.0401 µM) and the MIC90 (Moraxella catarrhalis) was 0.03 µg/mL (≈ 0.0401 µM). For the same compound, the “MIC Range” value (Moraxella catarrhalis) was 0.015 to 0.06 µg/mL, the “% S” value (Staphylococcus warneri) was 34.0% and the MIC50 (Staphylococcus warneri) was > 8 µg/mL. The MIC90 (Staphylococcus warneri) was > 8 µg/mL, the “% S” value (Streptococcus agalactiae) was 73.0% and the MIC50 (Streptococcus agalactiae; read-out: MIC50) was 0.06 µg/mL (≈ 0.0801 µM). The MIC90 (Streptococcus agalactiae; read-out: MIC90) was > 8 µg/mL, the “% S” value (Staphylococcus aureus; [14]) was 43.8% and the “% S” value (Staphylococcus aureus; [15]) was 64.3%. For the same compound, the “% S” value (Staphylococcus aureus; Staphylococcus aureus (MRSA, N = 11)) was 9.1%, the “% S” value (Staphylococcus aureus; Staphylococcus aureus (MSSA, N = 19)) was 78.9% and the “% S” value (Staphylococcus aureus; [16]) was 53.3%. The MIC50 (Staphylococcus aureus; [17]) was > 8 µg/mL, the MIC90 (Staphylococcus aureus; [17]) was > 8 µg/mL and the MIC50 (Staphylococcus aureus; [18]) was 1 µg/mL (≈ 1.34 µM). The MIC90 (Staphylococcus aureus; [18]) was > 8 µg/mL, the MIC50 (Staphylococcus aureus; [14]) was > 8 µg/mL and the MIC90 (Staphylococcus aureus; [14]) was > 8 µg/mL. The MIC50 (Staphylococcus aureus; [15]) was 1 µg/mL (≈ 1.34 µM), the MIC90 (Staphylococcus aureus; [15]) was > 8 µg/mL and the MIC50 (Staphylococcus aureus; [16]) was 1 µg/mL (≈ 1.34 µM). For the same compound, the MIC90 (Staphylococcus aureus; [16]) was > 8 µg/mL.
